Blank lines part the entries; values can stand above or below the molecule they belong to.
Legend:
[1] = Biodistribution of 177Lu-labeled αMSH analogues in mice bearing SK-MEL-1 human melanoma; details: male, mouse, total radioactivity; for tissue to tissue ratio at 1 h: 1 h p.i.; for tissue to tissue ratio at 1 h / tissue to tissue ratio at 4 h / tissue to tissue ratio at 24 h / tissue to tissue ratio at 120 h: NRG mice, SK-MEL-1 melanoma; for tissue to tissue ratio at 4 h: 4 h p.i.; for tissue to tissue ratio at 24 h: 24 h p.i.; for tissue to tissue ratio at 120 h: 120 h p.i.
Description: The SK-MEL-1 human melanoma cell line (HTB-67) was obtained commercially from ATCC. SK-MEL-1 cells were cultured in Eagle's Minimum Essential Medium (StemCell Technologies) under the same conditions as described in Example 1. Immunodeficient NOD.Cg-Rag1tm1Mom I12rgtm1Wjl/SzJ (NRG) male mice were obtained from an in-house breeding colony at the BC Cancer Research Centre. For tumor implantation, male NRG mice were anesthetized by inhalation with 2% isoflurane, and 5 million SK-MEL-1 cells were inoculated subcutaneously on the right dorsal flank. Mice were used for imaging or biodistribution studies when the tumors reached 6-8 mm in diameter in 16-20 days.
Biodistribution studies were performed as described in Example 3.

B16F10 mouse melanoma = test: Biodistribution of 177Lu-labeled αMSH analogues in mice bearing B16F10 mouse melanoma; assay type: in vivo, C57BL/6J mice; details: among six αMSH analogues
Description: The B16-F10 mouse melanoma cells were cultured and inoculated in mice as described in Example 1.
For biodistribution studies, approximately 1-2 MBq of ^177Lu-labeled αMSH analogues via tail vein under anesthesia. At 1, 4, 24, and 120 h p.i., the mice were euthanized by CO2 inhalation. Organs/tissues were harvested and the radioactivity was measured as described in Example 1.

[2] = NRG (NOD.Cg-Rag1tm1Mom I12rgtm1Wjl/SzJ), fat, iv
[3] = NRG (NOD.Cg-Rag1tm1Mom I12rgtm1Wjl/SzJ), seminal glands, iv
[4] = NRG (NOD.Cg-Rag1tm1Mom Il2rgtm1Wjl/SzJ), SK-MEL-1 tumour
[5] = NRG (NOD.Cg-Rag1tm1Mom Il2rgtm1Wjl/SzJ), adrenal glands
[6] = NRG (NOD.Cg-Rag1tm1Mom Il2rgtm1Wjl/SzJ), blood
[7] = NRG (NOD.Cg-Rag1tm1Mom Il2rgtm1Wjl/SzJ), bone
[8] = NRG (NOD.Cg-Rag1tm1Mom Il2rgtm1Wjl/SzJ), brain
[9] = NRG (NOD.Cg-Rag1tm1Mom Il2rgtm1Wjl/SzJ), heart
[10] = NRG (NOD.Cg-Rag1tm1Mom Il2rgtm1Wjl/SzJ), intestine
[11] = NRG (NOD.Cg-Rag1tm1Mom Il2rgtm1Wjl/SzJ), kidneys
[12] = NRG (NOD.Cg-Rag1tm1Mom Il2rgtm1Wjl/SzJ), liver
[13] = NRG (NOD.Cg-Rag1tm1Mom Il2rgtm1Wjl/SzJ), lungs
[14] = NRG (NOD.Cg-Rag1tm1Mom Il2rgtm1Wjl/SzJ), muscle
[15] = NRG (NOD.Cg-Rag1tm1Mom Il2rgtm1Wjl/SzJ), pancreas
[16] = NRG (NOD.Cg-Rag1tm1Mom Il2rgtm1Wjl/SzJ), spleen
[17] = NRG (NOD.Cg-Rag1tm1Mom Il2rgtm1Wjl/SzJ), stomach
[18] = NRG (NOD.Cg-Rag1tm1Mom Il2rgtm1Wjl/SzJ), testes
[19] = NRG (NOD.Cg-Rag1tm1Mom Il2rgtm1Wjl/SzJ), thyroid
[20] = NRG (NOD.Cg-Rag1tm1Mom Il2rgtm1Wjl/SzJ), tumour/blood
[21] = NRG (NOD.Cg-Rag1tm1Mom Il2rgtm1Wjl/SzJ), tumour/kidney
[22] = NRG (NOD.Cg-Rag1tm1Mom Il2rgtm1Wjl/SzJ), tumour/muscle
[23] = NRG (NOD.Cg-Rag1tm1Mom Il2rgtm1Wjl/SzJ), urine

tissue uptake at 1 h [1, 2]: 2.4 ± 0.39 %ID/g
tissue uptake at 4 h [1, 2]: 2.69 ± 0.38 %ID/g
tissue uptake at 24 h [1, 2]: 2.1 ± 0.53 %ID/g
tissue uptake at 120 h [1, 2]: 1.13 ± 0.55 %ID/g
tissue uptake at 1 h [1, 3]: 1.81 ± 0.6 %ID/g
tissue uptake at 4 h [1, 3]: 1.66 ± 0.51 %ID/g
tissue uptake at 24 h [1, 3]: 1.22 ± 0.11 %ID/g
tissue uptake at 120 h [1, 3]: 0.44 ± 0.12 %ID/g
tissue uptake at 1 h [1, 4]: 6.62 ± 1.37 %ID/g
tissue uptake at 4 h [1, 4]: 9.46 ± 1.59 %ID/g
tissue uptake at 24 h [1, 4]: 30.5 ± 2.72 %ID/g
tissue uptake at 120 h [1, 4]: 26.5 ± 4.52 %ID/g
tissue uptake at 1 h [1, 5]: 6.47 ± 2.97 %ID/g
tissue uptake at 4 h [1, 5]: 5.69 ± 2.19 %ID/g
tissue uptake at 24 h [1, 5]: 5.66 ± 1.07 %ID/g
tissue uptake at 120 h [1, 5]: 4.04 ± 1.06 %ID/g
tissue uptake at 1 h [1, 6]: 32 ± 5.85 %ID/g
tissue uptake at 4 h [1, 6]: 22.7 ± 1.5 %ID/g
tissue uptake at 24 h [1, 6]: 14.7 ± 0.98 %ID/g
tissue uptake at 120 h [1, 6]: 1.93 ± 0.4 %ID/g
tissue uptake at 1 h [1, 7]: 1.98 ± 0.8 %ID/g
tissue uptake at 4 h [1, 7]: 1.38 ± 0.29 %ID/g
tissue uptake at 24 h [1, 7]: 1.21 ± 0.2 %ID/g
tissue uptake at 120 h [1, 7]: 0.49 ± 0.17 %ID/g
tissue uptake at 1 h [1, 8]: 0.49 ± 0.06 %ID/g
tissue uptake at 4 h [1, 8]: 0.39 ± 0.05 %ID/g
tissue uptake at 24 h [1, 8]: 0.32 ± 0.03 %ID/g
tissue uptake at 120 h [1, 8]: 0.13 ± 0.02 %ID/g
tissue uptake at 1 h [1, 9]: 7.94 ± 1.58 %ID/g
tissue uptake at 4 h [1, 9]: 5.71 ± 0.51 %ID/g
tissue uptake at 24 h [1, 9]: 4.57 ± 0.51 %ID/g
tissue uptake at 120 h [1, 9]: 1.4 ± 0.25 %ID/g
tissue uptake at 1 h [1, 10]: 3.1 ± 1 %ID/g
tissue uptake at 4 h [1, 10]: 2.26 ± 0.56 %ID/g
tissue uptake at 24 h [1, 10]: 1.89 ± 0.29 %ID/g
tissue uptake at 120 h [1, 10]: 0.54 ± 0.1 %ID/g
tissue uptake at 1 h [1, 11]: 12.5 ± 3.49 %ID/g
tissue uptake at 4 h [1, 11]: 9.78 ± 1.28 %ID/g
tissue uptake at 24 h [1, 11]: 9.72 ± 1.38 %ID/g
tissue uptake at 120 h [1, 11]: 4.08 ± 0.78 %ID/g
tissue uptake at 1 h [1, 12]: 7.36 ± 1.58 %ID/g
tissue uptake at 4 h [1, 12]: 7.11 ± 1.5 %ID/g
tissue uptake at 24 h [1, 12]: 8.35 ± 1.86 %ID/g
tissue uptake at 120 h [1, 12]: 4.38 ± 1.08 %ID/g
tissue uptake at 1 h [1, 13]: 17.6 ± 5.68 %ID/g
tissue uptake at 4 h [1, 13]: 11.8 ± 2.51 %ID/g
tissue uptake at 24 h [1, 13]: 9.06 ± 1.04 %ID/g
tissue uptake at 120 h [1, 13]: 2.35 ± 0.54 %ID/g
tissue uptake at 1 h [1, 14]: 2.13 ± 0.4 %ID/g
tissue uptake at 4 h [1, 14]: 1.96 ± 0.3 %ID/g
tissue uptake at 24 h [1, 14]: 1.5 ± 0.19 %ID/g
tissue uptake at 120 h [1, 14]: 0.31 ± 0.07 %ID/g
tissue uptake at 1 h [1, 15]: 3.09 ± 0.53 %ID/g
tissue uptake at 4 h [1, 15]: 2.55 ± 0.15 %ID/g
tissue uptake at 24 h [1, 15]: 2.27 ± 0.34 %ID/g
tissue uptake at 120 h [1, 15]: 0.7 ± 0.13 %ID/g
tissue uptake at 1 h [1, 16]: 5.65 ± 1.09 %ID/g
tissue uptake at 4 h [1, 16]: 4.21 ± 1.31 %ID/g
tissue uptake at 24 h [1, 16]: 6.19 ± 1 %ID/g
tissue uptake at 120 h [1, 16]: 6.86 ± 2.08 %ID/g
tissue uptake at 1 h [1, 17]: 1.03 ± 0.45 %ID/g
tissue uptake at 4 h [1, 17]: 1.02 ± 0.53 %ID/g
tissue uptake at 24 h [1, 17]: 1.44 ± 0.28 %ID/g
tissue uptake at 120 h [1, 17]: 0.47 ± 0.12 %ID/g
tissue uptake at 1 h [1, 18]: 4.23 ± 0.94 %ID/g
tissue uptake at 4 h [1, 18]: 5.09 ± 0.82 %ID/g
tissue uptake at 24 h [1, 18]: 4.89 ± 0.87 %ID/g
tissue uptake at 120 h [1, 18]: 3.03 ± 0.37 %ID/g
tissue uptake at 1 h [1, 19]: 7.45 ± 1.35 %ID/g
tissue uptake at 4 h [1, 19]: 6.83 ± 0.84 %ID/g
tissue uptake at 24 h [1, 19]: 11.6 ± 1.26 %ID/g
tissue uptake at 120 h [1, 19]: 12.4 ± 2.26 %ID/g
tissue to tissue ratio at 1 h [1, 20]: 0.21 ± 0.02
tissue to tissue ratio at 4 h [1, 20]: 0.42 ± 0.04
tissue to tissue ratio at 24 h [1, 20]: 2.08 ± 0.26
tissue to tissue ratio at 1 h [1, 21]: 0.54 ± 0.07
tissue to tissue ratio at 4 h [1, 21]: 0.96 ± 0.04
tissue to tissue ratio at 24 h [1, 21]: 3.19 ± 0.46
tissue to tissue ratio at 120 h [1, 21]: 6.57 ± 0.71
tissue to tissue ratio at 1 h [1, 22]: 3.11 ± 0.29
tissue to tissue ratio at 4 h [1, 22]: 4.85 ± 0.53
tissue to tissue ratio at 24 h [1, 22]: 20.5 ± 2.51
tissue to tissue ratio at 120 h [1, 22]: 91.3 ± 35.8
excreta dose per gram or mL at 1 h [1, 23]: 51 ± 21.8 %ID/g
excreta dose per gram or mL at 4 h [1, 23]: 11.2 ± 6.54 %ID/g
excreta dose per gram or mL at 24 h [1, 23]: 20.4 ± 7.69 %ID/g
excreta dose per gram or mL at 120 h [1, 23]: 6.46 ± 1.57 %ID/g
SMILES: CCCC[C@H](NC(=O)CN1CCC(NC(=O)[C@H](CCCCNC(=O)CN2CCN(CC(=O)O)CCN(CC(=O)O)CCN(CC(=O)O)CC2)NC(=O)CNC(=O)CCCc2ccc(I)cc2)CC1)C(=O)N[C@H]1CC(=O)NCCCC[C@@H](C(N)=O)N(C)C(=O)[C@H](Cc2c[nH]c3ccccc23)NC(=O)[C@H](CCCNC(=N)N)N(C)C(=O)[C@@H](Cc2ccccc2)NC(=O)[C@H](Cc2c[nH]cn2)NC1=O [^177Lu-labeled CCZ01148, metal not drawn]

SMILES: CCCC[C@H](NC(=O)CN1CCC(NC(=O)[C@H](CCCCNC(=O)CN2CCN(CC(=O)O)CCN(CC(=O)O)CCN(CC(=O)O)CC2)NC(=O)[C@H](CCC(=O)O)NC(=O)CCCc2ccc(I)cc2)CC1)C(=O)N[C@H]1CC(=O)NCCCC[C@@H](C(N)=O)N(C)C(=O)[C@H](Cc2c[nH]c3ccccc23)NC(=O)[C@H](CCCNC(=N)N)N(C)C(=O)[C@@H](Cc2ccccc2)NC(=O)[C@H](Cc2c[nH]cn2)NC1=O [CCZ01118, [4-(p-iodophenyl)butanoyl]-Glu-Lys(DOTA)-Pip-Nle-cyclo[Asp-His-D-Phe-N-Me-Arg-Trp-N-Me-Lys]-NH2]
Improvement in tumour uptake retention (B16F10 mouse melanoma): showed the most improvement in tumour uptake retention

Reference: patent US11395857B2, “Radiolabeled melanocortin 1 receptor-specific alpha-melanocyte-stimulating hormone analogues for imaging or therapy” (PROVINCIAL HEALTH SERVICES AUTHORITY, priority 2018, dated 2022)
